The target of the test is T1, Serine/threonine-protein kinase Chk1 (Homo sapiens, UniProt O14757).
T1 sequence (O14757 whole entry): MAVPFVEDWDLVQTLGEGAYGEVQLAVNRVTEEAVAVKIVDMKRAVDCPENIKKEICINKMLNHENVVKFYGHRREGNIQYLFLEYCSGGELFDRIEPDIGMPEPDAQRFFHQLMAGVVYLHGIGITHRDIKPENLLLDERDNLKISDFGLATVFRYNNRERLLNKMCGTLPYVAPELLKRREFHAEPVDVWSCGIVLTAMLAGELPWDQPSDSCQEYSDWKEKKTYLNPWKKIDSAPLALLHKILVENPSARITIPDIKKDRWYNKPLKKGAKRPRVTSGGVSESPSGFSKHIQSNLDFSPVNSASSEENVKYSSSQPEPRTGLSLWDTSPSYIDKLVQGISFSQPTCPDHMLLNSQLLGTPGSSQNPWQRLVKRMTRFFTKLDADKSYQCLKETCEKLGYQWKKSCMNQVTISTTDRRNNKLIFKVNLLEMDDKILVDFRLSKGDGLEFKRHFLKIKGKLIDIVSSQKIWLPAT
Kind of test: Inhibition of human recombinant Chk1.
By IC50 is commonly meant the concentration that gives 50% inhibition. On to `N#Cc1cccc(-c2ccc3c(c2)Nc2ccccc2NC3=O)c1`, for which the IC50 was found to be 970 nM. As to `COc1cc(-c2ccc3c(c2)Nc2ccccc2NC3=O)ccc1Cl`, the concentration for half-maximal inhibition (IC50) was found to be 91 nM.

For the molecule `CCOc1cccc(-c2ccc3c(c2)Nc2ccccc2NC3=O)c1`, the IC50 was more than 10000 nM. Turning to `COC(=O)c1ccc(-c2ccc3c(c2)Nc2ccccc2NC3=O)cc1OC`, the IC50 is 53 nM. With `CC(=O)c1ccccc1-c1ccc2c(c1)Nc1ccccc1NC2=O`, the half-maximal inhibitory concentration (IC50) stood at 8000 nM.

On to `COc1cc(-c2ccc3c(c2)Nc2ccccc2NC3=O)ccc1O`, for which the IC50 was found to be 82 nM. With `COc1cc(-c2ccc3c(c2)Nc2ccccc2NC3=O)ccc1C(C)=O`, the half-maximal inhibitory concentration (IC50) was found to be 48 nM. Regarding `CC(=O)c1ccc(-c2ccc3c(c2)Nc2ccccc2NC3=O)cc1`, the IC50 was more than 10000 nM. For the molecule `COc1cc(-c2ccc3c(c2)Nc2ccccc2NC3=O)ccc1C#N`, the concentration for half-maximal inhibition (IC50) was 33 nM. In the case of `COc1ccccc1-c1ccc2c(c1)Nc1ccccc1NC2=O`, the concentration for half-maximal inhibition (IC50) is 3600 nM. For the molecule `N#Cc1ccc(-c2ccc3c(c2)Nc2ccccc2NC3=O)cc1`, the IC50 is more than 10000 nM. Regarding `CC(=O)c1cccc(-c2ccc3c(c2)Nc2ccccc2NC3=O)c1`, the IC50 was 2100 nM. As to `O=C1Nc2ccccc2C(O)c2ccccc21` (stereo not given), the IC50 was more than 50000 nM. Then `O=C1Nc2ccccc2Nc2cc(-c3ccccc3)ccc21`, with more than 10000 nM; and `COc1cc(-c2ccc3c(c2)Nc2ccccc2NC3=O)ccc1C(N)=O`, with 88 nM. Consider `COc1cccc(-c2ccc3c(c2)Nc2ccccc2NC3=O)c1`, for which the IC50 came out at 500 nM. Then `O=C1Nc2ccccc2S(=O)(=O)c2ccccc21`, with more than 50000 nM; and `COc1cc(-c2ccc3c(c2)Nc2ccccc2NC3=O)ccc1[N+](=O)[O-]`, with 10 nM; and `O=c1[nH]c2ccccc2c(=O)c2ccccc12`, with more than 50000 nM. To `COc1cc(-c2ccc3c(c2)C(=O)Nc2ccccc2N3)ccc1O` belongs more than 10000 nM.

The values are drawn from ChEMBL document CHEMBL1148724, “Design, synthesis, and biological activity of 5,10-dihydro-dibenzo[b,e][1,4]diazepin-11-one-based potent and selective Chk-1 inhibitors” (J Med Chem, 2007).
